Laboratory results: PubChem BioAssay AID2060902 (Molecular Pharmacology Branch, DTP, NCI, 2025)

System: 485368-065-R3-J5-PDC spheroids with HUVEC/MSC, viability
Experiment: Anticancer human tumor 485368-065-R3-J5-PDC patient-derived pancreatic carcinoma cell line growth inhibition [RAS]
Conditions: for IC50: curve of first compound; for viability, T/C: stronger effect = lower value; active = viability on the fitted dose curve at most 10% of control; inactive = the rest
How it was run: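 Agents were tested in combination matrices in half-log decrements from a top concentration at or near clinical Cmax (10 microM if undetermined). Targets were multi-cell spheroids of tumour lines plus HUVEC and MSC stromal cells.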

[1] = second compound 0.00316 µM, first compound 0.000949 µM
[2] = second compound 0.00316 µM, first compound 0.003 µM
[3] = second compound 0.00316 µM, first compound 0.00949 µM
[4] = second compound 0.00316 µM, first compound 0.03 µM
[5] = second compound 0.00316 µM, first compound 0.0949 µM
[6] = second compound 0.00316 µM, first compound 0.3 µM
[7] = second compound 0.01 µM, first compound 0.000949 µM
[8] = second compound 0.01 µM, first compound 0.003 µM
[9] = second compound 0.01 µM, first compound 0.00949 µM
[10] = second compound 0.01 µM, first compound 0.03 µM
[11] = second compound 0.01 µM, first compound 0.0949 µM
[12] = second compound 0.01 µM, first compound 0.3 µM
[13] = second compound 0.0316 µM, first compound 0.000949 µM
[14] = second compound 0.0316 µM, first compound 0.003 µM
[15] = second compound 0.0316 µM, first compound 0.00949 µM
[16] = second compound 0.0316 µM, first compound 0.03 µM
[17] = second compound 0.0316 µM, first compound 0.0949 µM
[18] = second compound 0.0316 µM, first compound 0.3 µM
[19] = second compound 0.1 µM, first compound 0.000949 µM
[20] = second compound 0.1 µM, first compound 0.003 µM
[21] = second compound 0.1 µM, first compound 0.00949 µM
[22] = second compound 0.1 µM, first compound 0.03 µM
[23] = second compound 0.1 µM, first compound 0.0949 µM
[24] = second compound 0.1 µM, first compound 0.3 µM
[25] = second compound 0.316 µM, first compound 0.000949 µM
[26] = second compound 0.316 µM, first compound 0.003 µM
[27] = second compound 0.316 µM, first compound 0.00949 µM
[28] = second compound 0.316 µM, first compound 0.03 µM
[29] = second compound 0.316 µM, first compound 0.0949 µM
[30] = second compound 0.316 µM, first compound 0.3 µM
[31] = second compound 1 µM, first compound 0.000949 µM
[32] = second compound 1 µM, first compound 0.003 µM
[33] = second compound 1 µM, first compound 0.00949 µM
[34] = second compound 1 µM, first compound 0.03 µM
[35] = second compound 1 µM, first compound 0.0949 µM
[36] = second compound 1 µM, first compound 0.3 µM
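Also: spheroids exposed to agents for seven days before readout.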

CC(=O)OC12COC1CC(O)C1(C)C(=O)C(O)C3=C(C)C(OC(=O)C(O)C(NC(=O)OC(C)(C)C)c4ccccc4)CC(O)(C(OC(=O)c4ccccc4)C21)C3(C)C (stereo unspecified) + C=CC(=O)N1CCN(c2nc(OCC3CCCN3C)nc3c(F)c(-c4nc(N)cc(C)c4C(F)(F)F)c(Cl)cc23)C(C)C1
< 31.6 nM: IC50 (second compound 0.00316 µM) | IC50 (second compound 0.01 µM) | IC50 (second compound 0.0316 µM) | IC50 (second compound 0.1 µM) | IC50 (second compound 0.316 µM) | IC50 (second compound 1 µM)
inactive: viability, T/C (second compound 0.00316 µM, first compound 0.0316 µM) 14.1% | viability, T/C (second compound 0.00316 µM, first compound 0.1 µM) 12.1% | viability, T/C (second compound 0.00316 µM, first compound 0.316 µM) 13.5% | viability, T/C (second compound 0.00316 µM, first compound 1 µM) 12.9% | viability, T/C (second compound 0.00316 µM, first compound 3.16 µM) 13.9% | viability, T/C (second compound 0.00316 µM, first compound 10 µM) 18.2% | viability, T/C (second compound 0.01 µM, first compound 0.0316 µM) 11.4% | viability, T/C (second compound 0.01 µM, first compound 0.1 µM) 10.3% | viability, T/C (second compound 0.01 µM, first compound 0.316 µM) 11.2% | viability, T/C (second compound 0.01 µM, first compound 1 µM) 11.9% | viability, T/C (second compound 0.01 µM, first compound 3.16 µM) 11.9% | viability, T/C (second compound 0.01 µM, first compound 10 µM) 21.3% | viability, T/C (second compound 0.0316 µM, first compound 0.0316 µM) 13.2% | viability, T/C (second compound 0.0316 µM, first compound 0.1 µM) 9.68% | viability, T/C (second compound 0.0316 µM, first compound 0.316 µM) 12.2% | viability, T/C (second compound 0.0316 µM, first compound 1 µM) 16% | viability, T/C (second compound 0.0316 µM, first compound 3.16 µM) 16.2% | viability, T/C (second compound 0.0316 µM, first compound 10 µM) 19.9% | viability, T/C (second compound 0.1 µM, first compound 0.0316 µM) 10.6% | viability, T/C (second compound 0.1 µM, first compound 0.1 µM) 10.8% | viability, T/C (second compound 0.1 µM, first compound 0.316 µM) 13.7% | viability, T/C (second compound 0.1 µM, first compound 1 µM) 10% | viability, T/C (second compound 0.1 µM, first compound 3.16 µM) 17.6% | viability, T/C (second compound 0.1 µM, first compound 10 µM) 20.2% | viability, T/C (second compound 0.316 µM, first compound 0.0316 µM) 9.72% | viability, T/C (second compound 0.316 µM, first compound 0.1 µM) 13.7% | viability, T/C (second compound 0.316 µM, first compound 0.316 µM) 11.7% | viability, T/C (second compound 0.316 µM, first compound 1 µM) 13% | viability, T/C (second compound 0.316 µM, first compound 3.16 µM) 22.9% | viability, T/C (second compound 0.316 µM, first compound 10 µM) 28.2% | viability, T/C (second compound 1 µM, first compound 0.0316 µM) 12.8% | viability, T/C (second compound 1 µM, first compound 0.1 µM) 15.1% | viability, T/C (second compound 1 µM, first compound 0.316 µM) 16.3% | viability, T/C (second compound 1 µM, first compound 1 µM) 12.6% | viability, T/C (second compound 1 µM, first compound 3.16 µM) 17.3% | viability, T/C (second compound 1 µM, first compound 10 µM) 23.5%

CC1(C)CCC(Nc2ncc(C(F)(F)F)c(-c3c[nH]c4c(P(C)(C)=O)c(C#N)ccc34)n2)CN1 (stereo unspecified) + C=CC(=O)N1CCN(c2nc(OCC3CCCN3C)nc3c(F)c(-c4nc(N)cc(C)c4C(F)(F)F)c(Cl)cc23)C(C)C1
2.61 nM: IC50 (second compound 0.01 µM)
3.95 nM: IC50 (second compound 0.1 µM)
3.73 nM: IC50 (second compound 0.0316 µM)
inactive: viability, T/C [1] 92.5% | viability, T/C [2] 39.1% | viability, T/C [3] 26.9% | viability, T/C [4] 26.3% | viability, T/C [5] 30.9% | viability, T/C [6] 27.9% | viability, T/C [7] 87.5% | viability, T/C [8] 44.9% | viability, T/C [9] 26.5% | viability, T/C [10] 28.2% | viability, T/C [11] 28.2% | viability, T/C [12] 29.1% | viability, T/C [13] 73.6% | viability, T/C [14] 54% | viability, T/C [15] 32.8% | viability, T/C [16] 30.6% | viability, T/C [17] 30.8% | viability, T/C [18] 28.2% | viability, T/C [19] 83.5% | viability, T/C [20] 55.5% | viability, T/C [21] 32.3% | viability, T/C [22] 30.9% | viability, T/C [23] 30.5% | viability, T/C [24] 34.3% | viability, T/C [25] 100% | viability, T/C [26] 48.4% | viability, T/C [27] 32.6% | viability, T/C [28] 28.4% | viability, T/C [29] 30.6% | viability, T/C [30] 27.4% | viability, T/C [31] 87.1% | viability, T/C [32] 55.1% | viability, T/C [33] 35.8% | viability, T/C [34] 25.6% | viability, T/C [35] 32.1% | viability, T/C [36] 34.2%
4.02 nM: IC50 (second compound 1 µM)
2.89 nM: IC50 (second compound 0.316 µM)
2.36 nM: IC50 (second compound 0.00316 µM)

CCc1c2c(nc3ccc(O)cc13)-c1cc3c(c(=O)n1C2)COC(=O)[C@]3(O)CC + C=CC(=O)N1CCN(c2nc(OCC3CCCN3C)nc3c(F)c(-c4nc(N)cc(C)c4C(F)(F)F)c(Cl)cc23)C(C)C1
2.08 nM: IC50 (second compound 0.316 µM)
2.09 nM: IC50 (second compound 0.01 µM)
2.15 nM: IC50 (second compound 0.0316 µM)
active: viability, T/C [4] 6.75% | viability, T/C [5] 4.49% | viability, T/C [6] 3.28% | viability, T/C [10] 7.17% | viability, T/C [11] 3.98% | viability, T/C [12] 3.67% | viability, T/C [16] 6.26% | viability, T/C [17] 4.82% | viability, T/C [18] 3.26% | viability, T/C [22] 6.25% | viability, T/C [23] 4.43% | viability, T/C [24] 3.35% | viability, T/C [28] 5.63% | viability, T/C [29] 4.4% | viability, T/C [30] 3.28% | viability, T/C [34] 5.78% | viability, T/C [35] 5.14% | viability, T/C [36] 3.4%
1.76 nM: IC50 (second compound 1 µM)
1.96 nM: IC50 (second compound 0.00316 µM)
inactive: viability, T/C [1] 87.9% | viability, T/C [2] 25.8% | viability, T/C [3] 15.8% | viability, T/C [7] 90.6% | viability, T/C [8] 28.9% | viability, T/C [9] 17.6% | viability, T/C [13] 89.7% | viability, T/C [14] 33.6% | viability, T/C [15] 13% | viability, T/C [19] 85.4% | viability, T/C [20] 32.5% | viability, T/C [21] 12.2% | viability, T/C [25] 81.7% | viability, T/C [26] 34.7% | viability, T/C [27] 15.1% | viability, T/C [31] 74.6% | viability, T/C [32] 26.8% | viability, T/C [33] 16.5%
2.06 nM: IC50 (second compound 0.1 µM)
